Patent US4696937A, “Thiosulfonate derivatives for inhibiting malformation or destruction of red blood corpuscules” (Sanofi, priority 1984, dated 1987)

Key:
[1] = system: red cells of subjects suffering from drepanocytosis; test: Inhibition of sickling of human red blood corpuscules of subjects suffering from drepanocytosis; assay type: cell-based; settings: pH 7.40, one hour at 37° C.
Experimental: Inhibition of the sickling of human red blood corpuscules was assessed by washing and incubating, in a saline buffer (pH: 7.40; 0.15M) for one hour at 37° C., the red cells of subjects suffering from drepanocytosis. This operation was carried out in a water-bath under stirring and in the presence of a compound of the invention used at different concentrations. The molar ratios between the compound of the invention and the haemoglobin were initially tested at intervals ranging from 0.5 to 20, the mM concentration in haemoglobin being 0.5 in each case and the ratio being modified according to the results obtained.
At the end of incubation, the excess of the product being tested was removed by washing and the cellular suspension adjusted so as to form a haematocrit of 5% was transferred to an Erlenmeyer flask and incubated at 37° C. under a current comprising a humidified mixture of nitrogen and oxygen the oxygen concentration being regulated by a gas-mixing pump. The effluent gas was then transferred to another tube containing formaldehyde and, at the end of incubation, the cellular suspension was transferred to the formaldehyde by merely turning the flask upside down.
The proportion of deformed cells and those having the characteristics of drepanocytes (having two filiform extensions) was assessed with the aid of a microscope having a NORMARSKY interferential optical system. Inhibition of sickling was calculated according to the following formula: [formula]
The following results were obtained with representative compounds of the present invention in comparison with cystamine.

[2] = system: sickling; settings: literature: Inserm Symposium 1979; in words; cited from earlier work

| Structure (SMILES) | % inhibition of sickling of the red blood corpuscles ([1]; 0.5 mmolar) [%] | % inhibition of sickling of the red blood corpuscles ([1]; 1 mmolar) [%] | inhibiting sickling [2] | % inhibition of sickling of the red blood corpuscles ([1]; 5 mmolar) [%] |
| --- | --- | --- | --- | --- |
| Cc1ccc(S(=O)(=O)Sc2ncc[nH]2)cc1 [1H-imidazol-2-yl p-toluenethiosulfonate] | 50 | 100 |  |  |
| Cc1ccc(S(=O)(=O)Sc2nnc(N)s2)cc1 [5-amino-1,3,4-thiadiazol-2-yl p-toluenethiosulfonate] |  | 33 |  |  |
| NCCSSCCN [Cystamine, cystamine, reference compound] |  |  | particularly active | 33 |
